Measurements as given in US20230407304A1, “USE OF MICRORNA INHIBITION TO PREVENT AND TREAT OSTEOARTHRITIS AND OTHER INFLAMMATORY DISEASES” (VIRGINIA COMMONWEALTH UNIVERSITY, priority 2020, published 2023).
Several values for one entry are separate records, joined by “and”; a condition that tells them apart may be missing. Identical values can stand only once.

How the values were obtained:
[1] = system: destabilization of the medial meniscus model of OA; conditions: destabilization of the medial meniscus model of OA in mice; literature; cited from earlier work
[2] = system: rat articular chondrocytes (rArCs); test: WNT/β-catenin agonist or antagonist treatment of rArCs with or without IL-1β; type: cell-based; conditions: compound alone (LiCl 5 mM and 10 mM; XAV 0.5, 1 μM)
[3] = system: rat articular chondrocytes (rArCs); test: WNT/β-catenin agonist or antagonist treatment of rArCs with or without TNF-α; type: cell-based; conditions: compound plus 10 ng/mL TNF-α
[4] = system: unilateral ACLT model of OA in Sprague Dawley rats; test: Mild model of OA: unilateral ACLT, weekly intra-articular 24R,25 injections; type: in vivo, rat
Method: A total of 54 skeletally mature male Sprague-Dawley rats (Envigo, Indianapolis, IN), 9-10 weeks of age, weighing 250-300 g at the study onset, were used for these experiments. All animal procedures were performed according to the National Research Council's Guide for the Care and Use of Laboratory Animals guidelines and approved by Virginia Commonwealth University's Institutional Animal Care and Use Committee. All rats were given ad libitum access to standard pellet and water. Based on a previous study (Scott, supra) using a 30% effect size, 20% variance, and a power of 80%, a two-tail analysis indicated an n=8 per group was necessary to yield statistical significance.
The unilateral ACLT study initially included 45 rats. Each treatment group had n=8 plus 1 extra animal in case of morbidity or mortality. Three rats died resulting in a total of 42 rats in the study. Rats were sedated with 2-4% isoflurane anesthesia in 400 mL/min 02 to effect. Unilateral anterior cruciate ligament transections (ACLT, animals=45) were performed by medially translocating the patellar tendon in order to visualize and transect the ACL to create a […] model of OA. Left legs served at contralateral controls (c-control) while right legs received either […] of vehicle injections or 4×10^−7 M 24R,25(OH)2D3 (24R,2S) injections once a week. Eighteen rats were used to examine a 5-week prophylactic treatment duration while another eighteen rats were used to examine a 10-week prophylactic treatment duration. […] However, 3 animals died in this study resulting in an n=8 for the ACLT rats, for the 5-week vehicle (5W-Veh) treated rats, and the 10-week 24R,25 (10W-24R,25) treated rats. Animals were killed after 70 days. Hind-limbs were collected and micro-CT and histological analyses were performed. […]
The articular cartilage area, fibrotic area, and percent healthy subchondral bone were measured using Zen 2012 Blue Edition software. For the unilateral ACLT study: the articular cartilage area was measured on 2-3 slides per sample and the average area for each sample was reported for medial tibias. […]

[5] = system: bilateral ACLT model of OA in Sprague Dawley rats; test: Severe model of OA: bilateral ACLT, weekly intra-articular 24R,25 injections; type: in vivo, rat; conditions: 10 weeks
Method: The second study created a more severe model of OA by performing bilateral ACLTs, using the experimental design shown in FIG. 2B. Treatment groups had n=8 plus 1 extra animal in case of morbidity or mortality. Nine animals were sedated using 2-4% isoflurane anesthesia in 400 mL/min O2 to effect. Bilateral anterior cruciate ligament transections were performed by medially translocating the patellar tendon in order to visualize and transect the ACL. Left legs received vehicle injections and right legs received 24R,25 injections once weekly using the same injection regimen outlined for the previous study. Animals were killed 70 days post-ACLT, and serum and hind-limbs were collected.
24R,25(OH)2D3 was obtained from Enzo Life Sciences (Plymouth Meeting, PA) and dissolved in ethanol at a stock concentration of 10^−4 M in accordance with a previously established protocol (see Boyan et al. PLoS One. 2016; 11(8):e0161782). 40 μL of stock 24R,25 was dissolved in 10 mL sterile 1×PBS to create a final treatment concentration of 4×10^−7 M 24R,25. All animals received injections of 25 μL of 4×10^−7 M 24R,25 in right legs or vehicle (40 μL ethanol dissolved in sterile 1×PBS to a final concentration of 0.4%) in left legs once a week for 70 days based on a previously established protocol (see Boyan et al., supra).
Samples were decalcified for 7 days using Decal™ (StatLab Medical Products, Mckinney, TX), rinsed in running DI water for 15 mins, dehydrated in a series of 70-100% ethanol and xylene washes, and embedded with Richard-Allan Scientific Histoplast Paraffin (VWR, Radnor, PA). 5 μm sections were cut every 100-200 μm throughout the joint using a manual microtome (Shandon Finesse 325, Thermo Scientific) and stained using hematoxylin and eosin (H&E), toluidine blue, or Masson's trichrome. Samples were imaged using Zen 2012 Blue Edition software with an AxioCam MRc5 camera and Axio Observer Z.1 microscope (Carl Zeiss Microscopy, Oberkochen, Germany).
The articular cartilage area, fibrotic area, and percent healthy subchondral bone were measured using Zen 2012 Blue Edition software. For the unilateral ACLT study: the articular cartilage area was measured on 2-3 slides per sample and the average area for each sample was reported for medial tibias. […] For the bilateral ACLT study, articular cartilage area, fibrotic area, and the percent healthy subchondral bone were measured on one slide per sample for medial femurs. The subchondral bone plate was measured and subdivided into healthy regions (normal cartilage above) and unhealthy regions (subchondral bone remodeling and osteophyte formation, cartilage erosion/delamination). The percent healthy subchondral bone was reported as healthy subchondral bone divided by total subchondral bone*100.
Two blinded reviewers scored histological samples and assigned a grade (0-6.5) to assess OA depth progression into the cartilage and a stage (0-4) to assess the horizontal extent of cartilage involvement along the articulating surface according to the OARSI scoring system guidelines (see Pritzker et al. Osteoarthritis Cartilage. 2006 January; 14(1):13-29). The grade and stage were multiplied together to obtain the OARSI score. The higher the score, the more severe OA present, with a max possible score of 26. […]
Data are represented as mean±standard error. […] Blood serum of day 0 vs day 70 was analyzed used a two-tailed paired t-test using an alpha=0.05. […]

[6] = system: unilateral ACLT model of OA; conditions: four weeks following ACLT surgery, previous work (Boyan et al.); cited from earlier work
[7] = system: IL-1β stimulated increases in MMP-13, PGE2, and NO; conditions: cited from earlier work
[8] = 10W 24R,25 vs 10W-Veh vs ACLT alone
[9] = bilateral ACLT, 24R,25 vs vehicle limbs

Row | Compound | cartilage degradation [1] | total DNA [2] | total DNA [3] | cartilage area by histomorphometric analysis, medial tibias [4, 8] | micro-CT cartilage volume, medial and lateral tibia [4, 8] | mean OARSI score, medial tibias ([4]; unilateral ACLT, 4×10^−7 M 24R,25 once a week for 10 weeks, day 70, max possible score 26) | OARSI score (average) ([5]; bilateral ACLT, 24R,25 once weekly, day 70) | articular cartilage area, medial femurs (histomorphometric analysis) ([5]; bilateral ACLT, 24R,25 right legs vs vehicle left legs, once weekly) | fibrotic area, medial femurs [5, 9] | percent healthy subchondral bone, medial femurs [5, 9] | mitigation of OA progression / OA severity ([5]; severe (bilateral ACLT) model) | OA progression [6] | IL-1β stimulated increases in MMP-13, PGE2, and NO [7]
1 | Oc1nc(-c2ccc(C(F)(F)F)cc2)nc2c1CSCC2 [XAV, XAV-939] | reduced cartilage degradation | this was not seen | decrease in total DNA | – | – | – | – | – | – | – | – | – | –
2 | C=C1CC[C@H](O)C/C1=C/C=C1\CCC[C@]2(C)[C@@H]([C@H](C)CC[C@@H](O)C(C)(C)O)CC[C@@H]12 [24R,25, 24R,25-Dihydroxyvitamin D3] | – | – | – | no difference in cartilage area | no difference in cartilage volume between groups | 5.11 | 16.61 and 15 | significantly less articular cartilage area compared to vehicle limbs | equivalent amount | equivalent amount | did not provide evidence of mitigation of OA progression | mitigated OA progression | able to prevent
